#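 Exposure lasted 48 hours, with cells grown in 96-well plates and compounds tested at five concentrations. Here, GI50 denotes the concentration required for 50% inhibition of growth. TGI: concentration producing complete growth inhibition.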
# What was measured:
# Test in all cases: growth of human tumour cells (NCI), 48 h
# [1] = test system: LOX IMVI melanoma
# [2] = test system: NCI-H226 lung
# [3] = test system: CCRF-CEM leukemia
# [4] = test system: SN12C renal
# [5] = test system: HT29 colon
# [6] = test system: HS 578T breast
# [7] = test system: SW-620 colon
# [8] = test system: MALME-3M melanoma
# [9] = test system: PC-3 prostate
# [10] = test system: T-47D breast
# [11] = test system: HCT-15 colon
# [12] = test system: OVCAR-8 ovarian
# [13] = test system: DU-145 prostate
# [14] = test system: KM12 colon
# [15] = test system: HCC-2998 colon
# [16] = test system: U251 CNS
# [17] = test system: K-562 leukemia
# [18] = test system: HOP-62 NSCLC
# [19] = test system: UACC-257 melanoma
SMILES,TGI [1] [µM],TGI [2] [µM],TGI [3] [µM],TGI [4] [µM],TGI [5] [µM],TGI [6] [µM],TGI [7] [µM],TGI [8] [µM],TGI [9] [µM],TGI [10] [µM],TGI [11] [µM],TGI [12] [µM],TGI [13] [µM],TGI [14] [µM],TGI [15] [µM],TGI [16] [µM],TGI [17] [µM],TGI [18] [µM],TGI [19] [µM],GI50 [13] [µM]
O=C(CC(C(=O)c1cccs1)c1ccsc1)c1ccc(Cl)cc1 (centres undefined),> 100,> 100,> 100,> 100,> 100,> 100,> 100,> 100,> 100,> 100,> 100,> 100,> 100,> 100,> 100,> 100,> 100,> 100,> 100,
O=C1CC(C(O)C(O)C(O)CO)CC(=O)N1 (centres undefined),> 100,> 100,> 100,> 100,> 100,> 100,> 100,> 100,> 100,> 100,> 100,> 100,> 100,> 100,> 100,> 100,> 100,> 100,> 100,> 100
OC1C2CCC3C2CC(C(O)(c2ccccc2)c2ccccc2)C13 (centres undefined),> 100,92.6,95.1,47,> 100,> 100,> 100,71.3,> 100,> 100,> 100,> 100,> 100,> 100,> 100,> 100,> 100,> 100,95.6,
CSC1=NC(=O)CCN1C1OCC(OC(C)=O)C(OC(C)=O)C1OC(C)=O (centres undefined),,> 31.6,> 31.6,> 31.6,> 31.6,22.5,> 31.6,23.2,> 31.6,> 31.6,> 31.6,> 31.6,> 31.6,> 31.6,> 31.6,> 31.6,> 31.6,> 31.6,> 31.6,
CC(=O)NC1C(O)C(O)C(CO)OC1n1nc(SCc2ccccc2)c(=O)[nH]c1=O (centres undefined),> 100,> 100,> 100,> 100,> 100,> 100,> 100,> 100,> 100,> 100,> 100,> 100,> 100,> 100,> 100,> 100,> 100,> 100,> 100,
Clc1ccc(C2ON=C(c3ccccc3)N2C23CC4CC(CC(C4)C2)C3)cc1Cl (centres undefined),> 10,> 10,> 10,> 10,> 10,> 10,> 10,> 10,> 10,> 10,> 10,> 10,> 10,> 10,> 10,> 10,> 10,> 10,> 10,
